Patent US6177542A, “Integrin-binding peptides” (The Burnham Institute, priority 1997, dated 2001)
Positions of bridges follow the written chain, without caps; N, C: chain ends. Residues, ends and D or L forms follow the SMILES beside them. No end group written: not given here.

Legend:
[1] = molecular target: T1, αvβ3 integrin (Homo sapiens, UniProt P05106+P06756); test: inhibition of CRGDCL-phage binding to αvβ3; conditions: means from duplicate wells
T1 construct: The α5β1 and αvβ3 integrins were isolated from human placenta; from tissue; host or cells: human placenta
T1 sequence (P06756 31-889 limits assumed): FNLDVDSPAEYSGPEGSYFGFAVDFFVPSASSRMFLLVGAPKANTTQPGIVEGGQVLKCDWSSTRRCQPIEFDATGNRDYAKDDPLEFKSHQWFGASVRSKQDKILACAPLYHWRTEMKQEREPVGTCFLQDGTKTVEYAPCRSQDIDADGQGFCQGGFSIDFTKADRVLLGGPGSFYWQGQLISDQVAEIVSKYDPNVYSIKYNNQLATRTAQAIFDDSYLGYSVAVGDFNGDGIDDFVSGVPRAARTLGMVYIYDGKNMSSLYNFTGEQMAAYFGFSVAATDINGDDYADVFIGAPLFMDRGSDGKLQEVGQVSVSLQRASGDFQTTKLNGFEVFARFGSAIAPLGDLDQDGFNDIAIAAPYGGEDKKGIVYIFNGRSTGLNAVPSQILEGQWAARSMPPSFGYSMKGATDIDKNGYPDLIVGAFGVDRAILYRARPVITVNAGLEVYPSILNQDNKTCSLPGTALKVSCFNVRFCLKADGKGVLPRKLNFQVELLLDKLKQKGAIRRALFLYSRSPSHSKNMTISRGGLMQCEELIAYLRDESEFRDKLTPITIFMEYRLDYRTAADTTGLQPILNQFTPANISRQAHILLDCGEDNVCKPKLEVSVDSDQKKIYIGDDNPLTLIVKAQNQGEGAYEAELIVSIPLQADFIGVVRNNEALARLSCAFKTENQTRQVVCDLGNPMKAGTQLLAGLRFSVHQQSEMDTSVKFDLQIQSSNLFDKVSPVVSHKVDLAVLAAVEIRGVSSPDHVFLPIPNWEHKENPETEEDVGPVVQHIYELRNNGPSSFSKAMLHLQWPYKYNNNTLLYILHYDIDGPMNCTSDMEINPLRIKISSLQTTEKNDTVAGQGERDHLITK
T1 sequence (P06756 891-1048 limits assumed): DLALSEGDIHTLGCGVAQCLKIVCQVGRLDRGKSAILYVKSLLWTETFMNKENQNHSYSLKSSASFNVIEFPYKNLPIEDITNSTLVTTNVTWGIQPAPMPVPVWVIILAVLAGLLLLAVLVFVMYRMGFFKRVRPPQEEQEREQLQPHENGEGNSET
T1 sequence (P05106 27-788): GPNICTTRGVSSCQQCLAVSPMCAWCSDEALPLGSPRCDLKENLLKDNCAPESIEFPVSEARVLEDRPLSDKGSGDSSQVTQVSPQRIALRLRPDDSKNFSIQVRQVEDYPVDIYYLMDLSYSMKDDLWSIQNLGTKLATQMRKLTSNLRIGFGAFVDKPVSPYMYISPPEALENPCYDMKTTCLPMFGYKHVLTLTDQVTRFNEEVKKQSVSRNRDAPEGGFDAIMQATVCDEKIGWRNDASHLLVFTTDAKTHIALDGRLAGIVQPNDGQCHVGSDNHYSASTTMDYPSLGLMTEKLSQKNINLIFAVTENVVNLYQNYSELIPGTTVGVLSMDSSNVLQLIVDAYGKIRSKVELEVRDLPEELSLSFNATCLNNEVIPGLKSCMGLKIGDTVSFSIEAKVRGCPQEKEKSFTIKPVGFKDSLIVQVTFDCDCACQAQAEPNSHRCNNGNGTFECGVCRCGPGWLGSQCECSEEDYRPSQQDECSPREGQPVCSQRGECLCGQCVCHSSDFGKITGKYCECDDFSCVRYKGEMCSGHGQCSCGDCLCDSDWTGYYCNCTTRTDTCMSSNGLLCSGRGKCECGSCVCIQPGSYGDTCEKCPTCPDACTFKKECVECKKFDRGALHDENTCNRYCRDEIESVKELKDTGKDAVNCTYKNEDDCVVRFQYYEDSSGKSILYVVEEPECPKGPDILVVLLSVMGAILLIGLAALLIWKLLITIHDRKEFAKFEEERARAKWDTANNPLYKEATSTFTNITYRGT
Text: (§1) The α5β1 and αvβ3 integrins were isolated from human placenta as described in Pytela et al., PNAS USA.
(§2) Selected peptides were studied for their ability to bind to the αvβ3 integrin by using integrin bound on anti-αv or anti-β3 antibody coating. Microliter wells were coated with β3 antibodies to bind specifically the αvβ3 integrin. […] The bound phage were eluted with low pH buffer and quantitated by infection of bacteria as described above. The IC50 values are means from duplicate wells. ND means not determined.

[2] = molecular target: T2, α5β1 integrin (Homo sapiens, UniProt P05556+P08648); test: phage attachment assay: inhibition of CRGDCL-phage binding to α5β1 integrin; conditions: FIG. 1
T2 construct: The α5β1 and αvβ3 integrins were isolated from human placenta; from tissue; host or cells: human placenta
T2 sequence (P08648 42-894 limits assumed): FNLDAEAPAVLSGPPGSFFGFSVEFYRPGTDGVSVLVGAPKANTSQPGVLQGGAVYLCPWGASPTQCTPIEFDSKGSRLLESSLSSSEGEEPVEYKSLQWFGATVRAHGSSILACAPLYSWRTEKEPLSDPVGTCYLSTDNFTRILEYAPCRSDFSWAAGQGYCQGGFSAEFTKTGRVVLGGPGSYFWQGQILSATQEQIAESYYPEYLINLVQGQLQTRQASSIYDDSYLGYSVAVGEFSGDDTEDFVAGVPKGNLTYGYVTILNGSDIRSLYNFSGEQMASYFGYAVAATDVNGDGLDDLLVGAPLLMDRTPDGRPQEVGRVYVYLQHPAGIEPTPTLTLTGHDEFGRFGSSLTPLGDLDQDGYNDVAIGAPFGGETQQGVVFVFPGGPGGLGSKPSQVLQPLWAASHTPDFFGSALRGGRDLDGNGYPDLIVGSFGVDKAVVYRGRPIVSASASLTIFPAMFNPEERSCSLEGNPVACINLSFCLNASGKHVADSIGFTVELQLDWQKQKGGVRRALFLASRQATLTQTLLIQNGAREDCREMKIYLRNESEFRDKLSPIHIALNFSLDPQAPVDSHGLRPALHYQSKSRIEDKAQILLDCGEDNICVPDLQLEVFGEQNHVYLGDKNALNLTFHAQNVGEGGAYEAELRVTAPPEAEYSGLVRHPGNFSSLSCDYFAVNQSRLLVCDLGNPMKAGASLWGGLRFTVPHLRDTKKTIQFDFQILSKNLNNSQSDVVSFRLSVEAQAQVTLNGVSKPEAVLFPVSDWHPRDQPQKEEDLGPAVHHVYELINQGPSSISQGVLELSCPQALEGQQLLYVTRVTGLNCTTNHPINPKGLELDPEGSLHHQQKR
T2 sequence (P08648 895-1049 limits assumed): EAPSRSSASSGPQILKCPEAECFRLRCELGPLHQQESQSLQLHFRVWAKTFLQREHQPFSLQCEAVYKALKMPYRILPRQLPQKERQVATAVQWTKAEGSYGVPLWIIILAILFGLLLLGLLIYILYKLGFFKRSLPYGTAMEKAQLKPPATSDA
T2 sequence (P05556 21-798): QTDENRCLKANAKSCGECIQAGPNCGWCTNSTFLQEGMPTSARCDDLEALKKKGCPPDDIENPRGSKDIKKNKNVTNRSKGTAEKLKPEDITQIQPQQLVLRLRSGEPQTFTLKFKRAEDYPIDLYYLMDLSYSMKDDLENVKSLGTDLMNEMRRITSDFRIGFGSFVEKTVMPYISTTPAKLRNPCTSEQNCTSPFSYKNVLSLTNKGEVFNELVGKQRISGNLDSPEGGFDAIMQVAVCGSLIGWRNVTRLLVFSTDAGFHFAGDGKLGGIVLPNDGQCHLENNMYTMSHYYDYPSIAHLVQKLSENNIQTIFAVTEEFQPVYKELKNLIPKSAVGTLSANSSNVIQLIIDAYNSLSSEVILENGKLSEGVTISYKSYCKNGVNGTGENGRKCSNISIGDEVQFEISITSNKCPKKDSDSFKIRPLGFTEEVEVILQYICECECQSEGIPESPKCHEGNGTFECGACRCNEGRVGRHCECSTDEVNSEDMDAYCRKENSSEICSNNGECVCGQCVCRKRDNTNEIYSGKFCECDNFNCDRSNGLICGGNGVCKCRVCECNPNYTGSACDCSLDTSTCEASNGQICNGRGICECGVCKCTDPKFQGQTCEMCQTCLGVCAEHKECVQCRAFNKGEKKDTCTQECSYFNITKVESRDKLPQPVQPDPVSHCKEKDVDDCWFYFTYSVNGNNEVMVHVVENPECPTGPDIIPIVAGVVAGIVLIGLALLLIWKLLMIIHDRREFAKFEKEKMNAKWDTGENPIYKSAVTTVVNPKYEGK
Experimental: as §1
CRGDCL-displaying phage were incubated for 1 hour in the presence of various concentrations of the peptides to be tested in microtiter wells coated with the α5β1 integrin. […] Specific binding was quantitated by added K9lkan bacteria directly to the wells and growing the bacteria overnight at room temperature in the presence of tetracycline as described in Smith and Scott, Meth. Enzymol. […] The data represent means from duplicate wells.

[3] = molecular target: T3, α5β1 (UniProt G3HZ55+P08648); test: cell attachment assay: α5-transfected CHO cells B2/α27 to fibronectin; type: cell-based; conditions: FIG. 4A, read-out: IC50, inhibition of α5β1-mediated cell attachment to fibronectin
T3 construct: expressed in transfected cells; host or cells: CHO B2/α27 clone
Text: (§3) CHO cell lines expressing α5β1 (the B2/α27 clone, as described in Bauer et al., J. Cell. Biol. 116:477-487 (1992)), or CHO cell lines expressing αvβ1 (B2/v7 clone, described in Zhang et al., J. Cell. Biol. 122:235-242 (1993)) were used in these assays. Cell lines expressing fibronectin-binding integrins were used to determine peptide activities against these integrins in the cell attachment assay described in Ruoslahti et al. Methods Enzymol. 144:803-831 […]. The vitronectin-binding integrins αvβ5 and αvβ3 were assayed using the cell lines HT29 and IMR90, respectively, which were described in Koivunen et al. J. Biol. Chem. 268:205-210 (1993).
(§4) Human plasma fibronectin and vitronectin were iodinated as described in Morla and Ruoslahti, J. Cell Biol. 118:421-429 (1992), which is incorporated herein by reference. […] The input ell number was approximately 2×10^4 and attachment was quantitated by staining with 0.1% amido black.
(§5) Selected peptides were tested for inhibitory activity in cell attachment assays. The assays are described in detail in the Example above. The cells used in the various experiments were: (A) α5 -transfected CHO cells B2/α27 (α5β1); αv -transfectedCHO cells 32/v7 (αvβ1); (C) HT29 cells (αvβ5); (D) IMR90 cells (αvβ3). […]

[4] = molecular target: T2, α5β1 integrin; test: inhibition of ELRGDGW-containing phage binding to α5β1 integrin; conditions: 1 hour at room temperature
Experimental: Phage carrying the insert ELRGDGW (SEQ ID NO 24) were added together with various concentrations of the cyclic peptide […] (SEQ ID NO:03) into microliter wells coated with the α5β1 integrin and incubated for 1 hour at room temperature. The 15 phage which remained bound to the wells were quantitated by growing the K9lkan bacteria in the wells overnight at room temperature in the presence of tetracycline. The absorbance that indicates the growth of bacteria infected with phage was measured at 600 nm with an ELISA reader.

[5] = molecular target: T1, αvβ3 integrin; test: inhibition of NGRAHA-phage binding to αvβ3; conditions: means from duplicate wells
Text: as §1, §2

[6] = tested on: α5β1 and αvβ3 integrins; test: competitive binding assays for relative binding affinities of peptide motifs; parameters: species or system human; conditions: for relative binding affinity class (in words): competitive binding assays
[7] = molecular target: T2, α5β1 integrin; test: fibronectin binding assay: inhibition of 125I-labeled fibronectin binding to immobilized α5β1; conditions: FIG. 2, FIG. 3
Experimental: Microtiter wells were coated with anti-α5 specific antibody by incubating overnight at an antibody concentration of 10 μg/ml, followed by BSA. α5β1 integrin then was bound to α5specific antibody-coated wells by incubating 300 μl of a placental extract per well in TBS buffer containing 0.1 M octylglucoside, 1 mM CaCl2, 1 mM MnCl2 and proteinase inhibitors overnight at 4° C. according to Pytela et al., Methods Enzymol 144: 475-489 (1987), which is herein incorporated by reference. Alternatively, the α5β1 integrin was directly coated on plastic as described above. The wells were extensively washed with TBS containing 0.1% NP-40™. ^125 I-labeled fibronectin (100,000 cpm per well) was incubated in the presence of competing peptides for 1 hour at 25° C. in 100 μl volume of TBS containing 0.1% NP-40™ detergent and 1 mM MnCl 2. After repeated washing, the radioactivity remaining bound was quantitated with a gamma counter.
Next, three of these four peptides were compared for efficiencies in inhibiting binding of ^125 I-labeled fibronectin to immobilized α5β1, according to the fibronectin binding assay described in the Example above. Anti-α5 antibodies were used to tether α5β1 onto microliter wells. ^125 I-labeled fibronectin was incubated in the coated wells in the presence of competing peptides for 1 hour. After washing, the radioactivity that remained bound was determined. The data represent means from duplicate wells.

[8] = molecular target: T1, αvβ3 integrin; test: binding of peptides to αvβ3 integrin bound on anti-αv or anti-β3 antibody coating
Text: Selected peptides were studied for their ability to bind to the αvβ3 integrin by using integrin bound on anti-αv or anti-β3 antibody coating. Microliter wells were coated with β3 antibodies to bind specifically the αvβ3 integrin. The input of CRGDCL (SEQ ID NO:01)-containing phage and NGRAHA (SEQ ID NO:04)-containing phage were 2×10^12 and 5×10^12 TU per well, respectively. The bound phage were eluted with low pH buffer and quantitated by infection of bacteria as described above. The IC50 values are means from duplicate wells. ND means not determined.

[9] = molecular target: T4, αvβ5 (Homo sapiens, UniProt P06756+P18084); test: cell attachment assay: HT29 cells to vitronectin; type: cell-based
T4 construct: endogenous in cells; host or cells: HT29
T4 sequence (P06756 31-889 limits assumed): as the sequence (P06756 31-889 limits assumed) above
T4 sequence (P06756 891-1048 limits assumed): as the sequence (P06756 891-1048 limits assumed) above
T4 sequence (P18084 24-799): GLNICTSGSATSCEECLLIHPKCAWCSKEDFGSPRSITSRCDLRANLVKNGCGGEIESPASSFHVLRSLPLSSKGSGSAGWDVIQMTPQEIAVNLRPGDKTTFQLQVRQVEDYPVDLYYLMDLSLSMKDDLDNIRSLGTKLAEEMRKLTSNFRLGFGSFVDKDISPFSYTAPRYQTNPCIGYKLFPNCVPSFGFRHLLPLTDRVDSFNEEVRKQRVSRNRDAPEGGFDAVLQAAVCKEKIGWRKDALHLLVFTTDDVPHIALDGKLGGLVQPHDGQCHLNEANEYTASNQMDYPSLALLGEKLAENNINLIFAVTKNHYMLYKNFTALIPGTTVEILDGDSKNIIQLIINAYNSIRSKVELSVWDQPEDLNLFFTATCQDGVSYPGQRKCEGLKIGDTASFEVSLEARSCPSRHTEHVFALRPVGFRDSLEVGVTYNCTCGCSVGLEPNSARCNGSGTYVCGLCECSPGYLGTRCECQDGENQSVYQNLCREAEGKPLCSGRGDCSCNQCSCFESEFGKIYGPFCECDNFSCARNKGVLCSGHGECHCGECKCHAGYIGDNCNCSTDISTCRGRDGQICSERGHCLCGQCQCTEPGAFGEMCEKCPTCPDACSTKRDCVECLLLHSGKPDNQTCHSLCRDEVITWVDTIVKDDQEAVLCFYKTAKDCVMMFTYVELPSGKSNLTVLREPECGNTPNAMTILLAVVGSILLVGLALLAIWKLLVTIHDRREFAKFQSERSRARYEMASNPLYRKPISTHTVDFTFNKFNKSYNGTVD
Text: as §3, §4, §5

Molecule | IC50 [1] | IC50 [5] | relative binding affinity class (in words) [6] | activity in inhibiting 125I-fibronectin binding to α5β1 (in words) [7] | further results
CC(C)C[C@H](NC(=O)[C@@H]1CSSC[C@H](NC(=O)[C@H](C)NC(=O)CN)C(=O)N[C@@H](CCCNC(=N)N)C(=O)NCC(=O)N[C@@H](CC(=O)O)C(=O)N1)C(=O)NCC(=O)N[C@@H](C)C(=O)O [GAC*RGDC*LGA] (H-GACRGDCLGA-OH; disulfide 3-7) | 0.1 µM | – | – | – | IC50 ([2]; 1 hour, means from duplicate wells, read-out: IC50 (half-maximal inhibitory concentration), inhibition of CRGDCL-phage binding to α5β1): 0.02 µM; IC50 [3]: 100 µM; IC50 [4]: ~0.5 µM
N=C(N)NCCC[C@H](NC(=O)CNC(=O)[C@H](CC(=O)O)NC(=O)[C@@H](N)CO)C(=O)O [SDGR, reference compound] (H-SDGR-OH) | – | > 100 µM | – | – | –
CRGDC (disulfide 1-5 (inferred)) [cyclic peptide motif] | – | – | High affinity | – | –
CRGDCL (disulfide 1-5 (inferred)) | – | – | High affinity | very effective | binding to αvβ3 (in words) [8]: bound; binding affinity compared with similar linear peptides, as judged by the IC50 value ([6]; both α5β1 and αvβ3 integrins): about 10 times
CVLNGRME | – | – | moderate affinities | – | –
DGRAHA [DGRAHA] | – | 100 µM | – | – | IC50 against αvβ5 compared with the standard GRGDSP [9]: equal to the standard GRGDSP
GATIRSVDGA | ~100 µM | – | – | – | –
NGRAHA [NGRAHA] | 200 µM | 30 µM | – | active | IC50 ([2]; CRGDCL-phage, α5β1, read-out: IC50 in the phage assay (unit inferred)): 30 µM
SDGRAHS (SDGRAHA) [DGRAHA with a serine residue included at the amino terminus] | – | – | – | essentially devoid of activity | –
SRRGDL [RGD peptide] | – | – | – | – | binding to αvβ3 (in words) [8]: bound
